Assay results taken from US11420958B2, “Aryl and heteroaryl substituted indole compounds” (BRISTOL-MYERS SQUIBB COMPANY, priority 2017, dated 2022).

Tests used:
Type in all cases: cell-based
[1] = biological target: human TLR9 (Homo sapiens (Human), UniProt Q9NR96); assay: TLR9 inhibition reporter assay (HEK-Blue, SEAP); conditions: HEK-Blue cells overexpressing human TLR9, ODN2006 5 nM stimulation
In short: (§1)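 HEK-Blue cells overexpressing the receptor carry a SEAP reporter under IFN-β minimal promoter with NF-κB/AP-1 sites. Compounds (0.05 nM–50 μM final) were preincubated 30 min at room temperature, then cells were stimulated with gardiquimod 7.5 μM (TLR7), R848 15.9 μM (TLR8) or ODN2006 5 nM (TLR9) for 22 h at 37 °C.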

[2] = biological target: human TLR8 (Homo sapiens (Human), UniProt Q9NR97); assay: TLR8 inhibition reporter assay (HEK-Blue, SEAP); conditions: HEK-Blue cells overexpressing human TLR8, R848 15.9 μM stimulation
In short: as §1

[3] = biological target: human TLR7 (Homo sapiens (Human), UniProt Q9NYK1); assay: TLR7 inhibition reporter assay (HEK-Blue, SEAP); conditions: HEK-Blue cells overexpressing human TLR7, gardiquimod 7.5 μM stimulation
In short: as §1

human TLR7, sequence (Q9NYK1 27-1049): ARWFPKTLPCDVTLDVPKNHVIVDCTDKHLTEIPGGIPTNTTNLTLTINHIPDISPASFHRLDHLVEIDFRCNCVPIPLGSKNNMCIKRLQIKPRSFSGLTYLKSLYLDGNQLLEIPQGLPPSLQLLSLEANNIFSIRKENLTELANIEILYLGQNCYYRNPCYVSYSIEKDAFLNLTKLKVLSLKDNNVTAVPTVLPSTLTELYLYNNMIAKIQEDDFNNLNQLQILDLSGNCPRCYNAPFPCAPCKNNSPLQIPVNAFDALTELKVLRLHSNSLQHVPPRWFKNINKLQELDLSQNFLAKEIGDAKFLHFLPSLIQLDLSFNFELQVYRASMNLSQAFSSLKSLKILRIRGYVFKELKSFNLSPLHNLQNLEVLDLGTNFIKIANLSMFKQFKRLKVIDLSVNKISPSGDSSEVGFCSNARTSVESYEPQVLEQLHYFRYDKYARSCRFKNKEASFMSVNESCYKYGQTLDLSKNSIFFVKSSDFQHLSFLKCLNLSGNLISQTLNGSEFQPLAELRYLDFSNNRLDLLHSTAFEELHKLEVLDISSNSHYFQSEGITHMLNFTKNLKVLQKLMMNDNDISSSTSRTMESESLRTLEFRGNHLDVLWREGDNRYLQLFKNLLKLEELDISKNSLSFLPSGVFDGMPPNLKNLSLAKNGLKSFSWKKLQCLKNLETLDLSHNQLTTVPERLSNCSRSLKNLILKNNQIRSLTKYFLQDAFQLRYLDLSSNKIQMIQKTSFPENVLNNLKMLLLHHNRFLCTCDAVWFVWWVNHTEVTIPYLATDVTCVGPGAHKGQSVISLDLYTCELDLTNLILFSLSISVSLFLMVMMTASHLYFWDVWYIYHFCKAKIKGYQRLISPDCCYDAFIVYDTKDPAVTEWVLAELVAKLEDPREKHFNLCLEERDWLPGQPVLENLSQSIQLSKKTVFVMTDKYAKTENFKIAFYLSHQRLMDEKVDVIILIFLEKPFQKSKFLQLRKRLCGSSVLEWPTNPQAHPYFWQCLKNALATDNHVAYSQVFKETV
human TLR8, sequence (Q9NR97 27-1041): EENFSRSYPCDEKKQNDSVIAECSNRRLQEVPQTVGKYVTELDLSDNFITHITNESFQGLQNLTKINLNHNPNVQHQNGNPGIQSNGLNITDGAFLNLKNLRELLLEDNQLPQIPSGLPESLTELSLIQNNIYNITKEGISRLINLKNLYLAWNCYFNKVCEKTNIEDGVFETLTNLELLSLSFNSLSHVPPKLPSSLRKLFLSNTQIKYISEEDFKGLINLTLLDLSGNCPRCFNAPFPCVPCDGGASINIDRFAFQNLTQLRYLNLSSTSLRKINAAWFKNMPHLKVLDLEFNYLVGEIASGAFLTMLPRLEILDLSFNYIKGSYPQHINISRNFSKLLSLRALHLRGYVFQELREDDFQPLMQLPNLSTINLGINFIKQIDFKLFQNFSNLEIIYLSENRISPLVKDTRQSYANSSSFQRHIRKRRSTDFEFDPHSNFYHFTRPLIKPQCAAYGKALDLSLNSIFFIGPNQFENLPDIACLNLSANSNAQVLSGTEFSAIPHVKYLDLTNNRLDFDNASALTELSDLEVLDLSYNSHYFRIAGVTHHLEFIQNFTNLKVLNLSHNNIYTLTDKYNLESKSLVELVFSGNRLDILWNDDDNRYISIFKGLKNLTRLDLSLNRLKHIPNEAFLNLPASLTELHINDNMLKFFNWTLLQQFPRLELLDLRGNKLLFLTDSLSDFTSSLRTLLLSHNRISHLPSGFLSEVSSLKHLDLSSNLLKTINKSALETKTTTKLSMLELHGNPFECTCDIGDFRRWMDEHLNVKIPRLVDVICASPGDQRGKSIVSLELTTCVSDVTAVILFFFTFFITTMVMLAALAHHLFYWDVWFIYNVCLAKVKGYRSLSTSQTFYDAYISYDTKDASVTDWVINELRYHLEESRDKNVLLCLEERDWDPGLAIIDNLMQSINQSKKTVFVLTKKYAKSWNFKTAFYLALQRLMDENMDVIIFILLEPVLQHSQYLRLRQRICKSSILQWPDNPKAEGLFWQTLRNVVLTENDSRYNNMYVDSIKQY
human TLR9, sequence (Q9NR96 26-1032): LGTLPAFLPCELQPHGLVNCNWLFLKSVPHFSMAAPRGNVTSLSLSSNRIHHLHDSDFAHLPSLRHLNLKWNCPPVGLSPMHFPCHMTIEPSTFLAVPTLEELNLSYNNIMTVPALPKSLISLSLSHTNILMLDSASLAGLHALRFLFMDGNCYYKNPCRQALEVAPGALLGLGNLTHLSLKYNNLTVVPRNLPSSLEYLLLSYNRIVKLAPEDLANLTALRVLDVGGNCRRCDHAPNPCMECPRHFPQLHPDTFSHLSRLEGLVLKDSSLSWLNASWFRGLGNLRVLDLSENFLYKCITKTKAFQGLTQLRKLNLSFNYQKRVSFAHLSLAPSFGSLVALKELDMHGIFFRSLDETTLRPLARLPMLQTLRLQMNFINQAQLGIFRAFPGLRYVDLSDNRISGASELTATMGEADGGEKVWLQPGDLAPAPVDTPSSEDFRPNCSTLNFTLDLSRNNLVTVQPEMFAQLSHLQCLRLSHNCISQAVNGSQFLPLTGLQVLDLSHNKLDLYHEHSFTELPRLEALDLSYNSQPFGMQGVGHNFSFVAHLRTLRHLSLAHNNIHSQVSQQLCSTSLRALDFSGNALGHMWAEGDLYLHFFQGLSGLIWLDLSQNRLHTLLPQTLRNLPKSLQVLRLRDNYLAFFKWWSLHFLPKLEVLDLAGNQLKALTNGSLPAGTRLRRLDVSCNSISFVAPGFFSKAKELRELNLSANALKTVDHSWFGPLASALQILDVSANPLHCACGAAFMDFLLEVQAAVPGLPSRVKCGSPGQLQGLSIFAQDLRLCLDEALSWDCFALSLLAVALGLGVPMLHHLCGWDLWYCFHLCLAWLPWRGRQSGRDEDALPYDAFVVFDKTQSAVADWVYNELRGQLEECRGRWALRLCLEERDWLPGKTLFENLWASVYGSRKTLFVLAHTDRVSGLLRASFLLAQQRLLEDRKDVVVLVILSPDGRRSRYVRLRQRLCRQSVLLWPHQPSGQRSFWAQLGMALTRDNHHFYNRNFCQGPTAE

Row | IC50 [1] [nM] | IC50 [2] [nM] | IC50 [3] [nM] | SMILES
1 | 727 | 9.7 | 9.6 | Cc1cc(-c2[nH]c3ccc(-c4ccnc(N)c4)cc3c2C(C)C)ccn1 [Example 200, 4-(3-isopropyl-2-(2-methylpyridin-4-yl)-1H-indol-5-yl)pyridin-2-amine]
2 | 495 | 1.3 | 11 | CNCCNc1ccc(-c2ccc3[nH]c(-c4ccnc(C)c4)c(C(C)C)c3c2)cn1 [Example 202, N1-(5-(3-isopropyl-2-(2-methylpyridin-4-yl)-1H-indol-5-yl)pyridin-2-yl)-N2-methylethane-1,2-diamine]
3 | 218 | 5.7 | 67 | Cc1cc(-c2[nH]c3ccc(-c4nnc(C5CCCN(C(C)C)C5)[nH]4)cc3c2C(C)C)ccn1 (stereo not drawn) [Example 204, 3-isopropyl-5-(5-(1-isopropylpiperidin-3-yl)-4H-1,2,4-triazol-3-yl)-2-(2-methylpyridin-4-yl)-1H-indole]
4 | 243 | 5.5 | 32 | Cc1cc(-c2[nH]c3ccc(-c4nnc(C5CCCN(C(C)C)C5)[nH]4)cc3c2C(C)C)ccn1 (stereo not drawn) [Example 205, 3-isopropyl-5-(5-(1-isopropylpiperidin-3-yl)-4H-1,2,4-triazol-3-yl)-2-(2-methylpyridin-4-yl)-1H-indole]
5 | 1650 | 14 | 83 | Cc1cc(-c2[nH]c3ccc(-c4ccc(NC(=O)[C@H]5CCNC5)nc4)cc3c2C(C)C)ccn1 [Example 207, (S)—N-(5-(3-isopropyl-2-(2-methylpyridin-4-yl)-1H-indol-5-yl)pyridin-2-yl)pyrrolidine-3-carboxamide]
6 | 828 | 67 | 169 | Cc1cc(-c2[nH]c3ccc(-c4ccc(NC(=O)[C@@H]5CCNC5)nc4)cc3c2C(C)C)ccn1 [Example 209, (R)—N-(5-(3-isopropyl-2-(2-methylpyridin-4-yl)-1H-indol-5-yl)pyridin-2-yl)pyrrolidine-3-carboxamide]
7 | 686 | 4.4 | 203 | CC(C)CN1CCC(NC(=O)c2nnc(-c3ccc4[nH]c(-c5ccnc6[nH]ncc56)c(C(C)C)c4c3)o2)CC1 [Example 214, N-(1-isobutylpiperidin-4-yl)-5-(3-isopropyl-2-(1H-pyrazolo[3,4-b]pyridin-4-yl)-1H-indol-5-yl)-1,3,4-oxadiazole-2-carboxamide]
8 | 20800 | 14 | 9.8 | CNC(=O)c1c(-c2ccc3[nH]c(-c4ccnc(C)c4)c(C(C)C)c3c2)nn2c1CNCC2 [Example 215, 2-(3-isopropyl-2-(2-methylpyridin-4-yl)-1H-indol-5-yl)-N-methyl-4,5,6,7-tetrahydropyrazolo[1,5-a]pyrazine-3-carboxamide]
9 | > 50000 | 41 | 417 | CNCCN1CCn2nc(-c3ccc4[nH]c(-c5ccnc6[nH]ncc56)c(C(C)C)c4c3)nc2C1 [Example 217, 2-(2-(3-isopropyl-2-(1H-pyrazolo[3,4-b]pyridin-4-yl)-1H-indol-5-yl)-5,6-dihydro-[1,2,4]triazolo[1,5-a]pyrazin-7(8H)-yl)-N-methylethan-1-amine]
10 | 1940 | 93 | 496 | CNCCN1CCn2nc(-c3ccc4[nH]c(-c5ccnc(C)c5)c(C(C)C)c4c3)c(C(N)=O)c2C1 [Example 218, 2-(3-isopropyl-2-(2-methylpyridin-4-yl)-1H-indol-5-yl)-5-(2-(methylamino)ethyl)-4,5,6,7-tetrahydropyrazolo[1,5-a]pyrazine-3-carboxamide]
11 | 2600 | 147 | 163 | CNCCN1CCn2nc(-c3ccc4[nH]c(-c5ccnc(C)c5)c(C(C)C)c4c3)c(C(=O)NC)c2C1 [Example 219, 2-(3-isopropyl-2-(2-methylpyridin-4-yl)-1H-indol-5-yl)-N-methyl-5-(2-(methylamino)ethyl)-4,5,6,7-tetrahydropyrazolo[1,5-a]pyrazine-3-carboxamide]
12 | 515 | 2.5 | 15 | Cc1cc(-c2[nH]c3ccc(-c4nnc(C(=O)NC5CCN(C(C)C)CC5)o4)cc3c2C(C)C)cc(C)n1 [Example 221, 5-(2-(2,6-dimethylpyridin-4-yl)-3-isopropyl-1H-indol-5-yl)-N-(1-isopropylpiperidin-4-yl)-1,3,4-oxadiazole-2-carboxamide]
13 | 138 | 1 | 6.6 | Cc1cc(-c2[nH]c3ccc(-c4nnc(C(=O)NCCN(C)C)o4)cc3c2C(C)C)cc(C)n1 [Example 223, N-(2-(dimethylamino)ethyl)-5-(2-(2,6-dimethylpyridin-4-yl)-3-isopropyl-1H-indol-5-yl)-1,3,4-oxadiazole-2-carboxamide]
14 | 229 | 2.5 | 11 | Cc1cc(-c2[nH]c3ccc(-c4nnc(C(=O)NCCCN(C)C)o4)cc3c2C(C)C)cc(C)n1 [Example 224, N-(3-(dimethylamino)propyl)-5-(2-(2,6-dimethylpyridin-4-yl)-3-isopropyl-1H-indol-5-yl)-1,3,4-oxadiazole-2-carboxamide]
15 | 1080 | 5.5 | 46 | CNCCc1nnc(-c2ccc3[nH]c(-c4ccc5ncnn5c4)c(C(C)C)c3c2)o1 [Example 226, 2-(5-(2-([1,2,4]triazolo[1,5-a]pyridin-6-yl)-3-isopropyl-1H-indol-5-yl)-1,3,4-oxadiazol-2-yl)-N-methylethan-1-amine]

Continued, compound first:

Row | SMILES | IC50 [1] [nM] | IC50 [2] [nM] | IC50 [3] [nM]
16 | Cc1cc(-c2[nH]c3ccc(-c4cnc(C5CCNCC5)s4)cc3c2C(C)C)ccn1 [Example 199, 5-(3-isopropyl-2-(2-methylpyridin-4-yl)-1H-indol-5-yl)-2-(piperidin-4-yl)thiazole] | 1100 | 4.9 | 37
17 | Cc1cc(-c2[nH]c3ccc(-c4sc(C5CCNCC5)nc4C)cc3c2C(C)C)ccn1 [Example 201, 5-(3-isopropyl-2-(2-methylpyridin-4-yl)-1H-indol-5-yl)-4-methyl-2-(piperidin-4-yl)thiazole] | 1840 | 2.9 | 10
18 | CC(C)c1c(-c2ccnc3[nH]ncc23)[nH]c2ccc(-c3nnc(C(=O)NC4CCN(C(C)C)CC4)s3)cc12 [Example 203, 5-(3-isopropyl-2-(1H-pyrazolo[3,4-b]pyridin-4-yl)-1H-indol-5-yl)-N-(1-isopropylpiperidin-4-yl)-1,3,4-thiadiazole-2-carboxamide] | 926 | 7.8 | 56
19 | CC(C)c1c(-c2ccnc3[nH]ncc23)[nH]c2ccc(-c3nc4n(n3)CCNC4)cc12 [Example 206, 2-(3-isopropyl-2-(1H-pyrazolo[3,4-b]pyridin-4-yl)-1H-indol-5-yl)-5,6,7,8-tetrahydro-[1,2,4]triazolo[1,5-a]pyrazine] | > 50000 | 11 | 4450
20 | CC(C)c1c(-c2ccnc3[nH]ncc23)[nH]c2ccc(-c3cc(N4CCC(N)CC4)ncn3)cc12 [Example 208, 1-(6-(3-isopropyl-2-(1H-pyrazolo[3,4-b]pyridin-4-yl)-1H-indol-5-yl)pyrimidin-4-yl)piperidin-4-amine] | 1220 | 9.3 | 139
21 | CC(C)c1c(-c2ccnc3[nH]ncc23)[nH]c2ccc(-c3nc4n(n3)CCN(C3CCN(C(C)C)CC3)C4)cc12 [Example 211, 2-(3-isopropyl-2-(1H-pyrazolo[3,4-b]pyridin-4-yl)-1H-indol-5-yl)-7-(1-isopropylpiperidin-4-yl)-5,6,7,8-tetrahydro-[1,2,4]triazolo[1,5-a]pyrazine] | 1830 | 9.9 | 216
22 | Cc1oc(-c2ccc3[nH]c(-c4ccnc5[nH]ncc45)c(C(C)C)c3c2)nc1C(=O)NCC1CCNC1 (stereo not drawn) [Example 212, 2-(3-isopropyl-2-(1H-pyrazolo[3,4-b]pyridin-4-yl)-1H-indol-5-yl)-5-methyl-N-(pyrrolidin-3-ylmethyl)oxazole-4-carboxamide] | 12100 | 109 | 1060
23 | Cc1cc(-c2[nH]c3ccc(-c4nnc(C5CN6CCC5CC6)o4)cc3c2C(C)C)ccn1 (stereo not drawn) [Example 213, 2-(3-isopropyl-2-(2-methylpyridin-4-yl)-1H-indol-5-yl)-5-(quinuclidin-3-yl)-1,3,4-oxadiazole] | 655 | 3.3 | 47
24 | Cc1cc(-c2[nH]c3ccc(-c4nn5c(c4C(N)=O)CNCC5)cc3c2C(C)C)ccn1 [Example 216, 2-(3-isopropyl-2-(2-methylpyridin-4-yl)-1H-indol-5-yl)-4,5,6,7-tetrahydropyrazolo[1,5-a]pyrazine-3-carboxamide] | 35000 | 6.9 | 25
25 | CC(C)c1c(-c2ccnc3[nH]ncc23)[nH]c2ccc(-c3nnc(C4CN5CCC4CC5)o3)cc12 (stereo not drawn) [Example 220, 2-(3-isopropyl-2-(1H-pyrazolo[3,4-b]pyridin-4-yl)-1H-indol-5-yl)-5-(quinuclidin-3-yl)-1,3,4-oxadiazole] | 238 | 12 | 76
26 | Cc1cc(-c2[nH]c3ccc(-c4nnc(C5CN6CCC5CC6)o4)cc3c2C(C)C)ccn1 (stereo not drawn) [Example 222, 2-(3-isopropyl-2-(2-methylpyridin-4-yl)-1H-indol-5-yl)-5-(quinuclidin-3-yl)-1,3,4-oxadiazole] | 1240 | 3.2 | 34
27 | Cc1cc(-c2[nH]c3ccc(-c4cc5c(s4)CNCC5)cc3c2C(C)C)ccn1 [Example 225, 2-(3-isopropyl-2-(2-methylpyridin-4-yl)-1H-indol-5-yl)-4,5,6,7-tetrahydrothieno[2,3-c]pyridine] | 623 | 1 | 16
